From patent US12677825B2, “Composition for protecting islet transplantation” (LG CHEM, LTD., priority 2020, dated 2026)

What was measured:
Format in all cases: cell-based, mouse
[1] = test system: hIAPP oligomers in hIAPP+/− islets; test: hIAPP oligomer accumulation (A11 antibody staining) after serum-deprived culture; details: 72 hours serum-deprived culture, BSA+Compound 1 vs BSA group; FIG. 6F
Protocol: Purified hIAPP^+/− FVB/N and C57BL/6J mouse were suspended in RPMI 1640 (Gibco, Grand Island, NY, USA) containing 100 IU/mL penicillin and 100 μg/mL streptomycin, and cultured at 37° C. in a fully humidified 5% CO2 atmosphere. Purified NHP islets were suspended in CMRL 1066 medium (Coming Life Sciences, Tewksbury, MA; catalog number 99-663-CV) containing 100 IU/mL penicillin and 100 μg/mL streptomycin, and cultured at 37° C. in a fully humidified 5% CO2 atmosphere. During the ex vivo culture of murine islets, three experimental groups were designated for experiments using hIAPP^+/− FVB/N and C57BL/6J mice islets: medium supplemented with 10% FBS (Tissue Culture Biologicals, Los Alamitos, CA, USA; catalog number 101; FBS group), medium supplemented with 0.625% bovine serum albumin (Qbiogene, Carlsbad, CA, USA; catalog number BSA003; BSA group), and medium supplemented with 0, 0.1, 1, 10 and 20 μM Compoun 1 plus 0.625% BSA (BSA+Compound 1 group). […]
Accumulation of hIAPP oligomers was evaluated using sections of hIAPP^+/− mice islets stained with A11 Ab (anti-oligomer antibody, Invitrogen) and insulin antibody (Dako). […] To quantify accumulation of hIAPP oligomers per islet, the proportion of A11-stained cells among total DAPI+islet cells was determined using confocal microscopy.

[2] = test system: islets from hIAPP+/− FVB/N mice; test: ATP assay of islets isolated with or without Compound 1; details: 20 μM Compound 1 during islet isolation, vs non-treated group; FIG. 1B
Protocol: (§1) Mouse islets were isolated from 10- to 12-week-old hIAPP^+/− and C57BL/6 mice as described previously. Briefly, 0.8 mg/mL of collagenase P (Roche, Indianapolis, IN, USA) in Hank's buffered saline solution (HBSS, Sigma-Aldrich, St. Louis, MO, USA) with or without 20 μM Compound 1 were infused into the common bile duct for mouse pancreas digestion. Islets were purified from the digested pancreas using a Ficoll (Biochrom, Berlin, Germany) gradient and washed several times with 1 xHBSS. Isolated islets were cultured while free-floating in 10 mL of RPMI 1640 (Gibco, Grand Island, NY, USA). The medium was supplemented with 10% heat-inactivated FBS (fetal bovine serum) at 37° C. and 5% CO2 incubation prior to the ex vivo and in vivo studies.
ATP content of islets was assayed by a luminometric method. The samples were mixed with 200 μL of a commercially available lyophilized ATP monitoring reagent containing firefly luciferase and luciferin (ATP Bioluminescence Assay KIT CLS II, Roche Diagnostics) at first reconstituted in an imidazole buffer (100 mM, pH 7.75). The emitted light was measured in a luminometer (LKB 1250 luminometer). The adenine nucleotide content in samples was determined after correction of the control (no islet or cell) and calculated by reference to ATP standards treated in the same manner as the samples.

[3] = test system: islets from hIAPP+/− FVB/N mice; test: Glucose-stimulated insulin secretion (GSIS) assay after islet isolation; details: 20 μM Compound 1 during islet isolation, vs non-treated group; FIG. 1E
Protocol: as §1
After hand-picking and washing with PBS, islets were seeded on 12-mm diameter insert wells (Merck Millipore, Billerica, MA, USA) with 10 islets per well, and preincubated with 60 mg/dL glucose in Kreb's-Ringer buffer (KRB: 129 mM NaCl, 4.8 mM KCl, 2.5 mM CaCl2, 1.2 mM KH2PO4, 5 mM NaHCO3, 10 mM HEPES, and 0.2% BSA) for […] at 37° C. After washing, islets were incubated with 300 mg/dL glucose-KRB for 1 hour, followed by additional incubation with 60 mg/dL glucose-KRB for 1 hour. Insulin release into the supernatant by the mouse islets was measured by ELISA (ALPCO, Salem, NH, USA) and a multiplex kit (Merck Millipore), respectively.

## O=S1(=O)CCN(Cc2cc(NC3CCOCC3)c3[nH]c(-c4ccccc4)cc3c2)CC1 [Compound 1]
[1]
  proportion of accumulation of hIAPP oligomers: significantly decreased
[2]
  levels of ATP: significantly elevated
[3]
  stimulation index in GSIS assay: comparable values between two groups
